# Measurements as given in paper PMC10619693, “Structural identification of catalytic His158 of PtMAC2p from Pseudozyma tsukubaensis, an acyltransferase involved in mannosylerythritol lipids formation” (Frontiers in Bioengineering and Biotechnology, 2023).
# Molecular target: T1, PtMAC2p (Pseudozyma tsukubaensis, UniProt A0A2Z6ERP5)
# T1 construct: gene PtMAC2
# Test: DTNB (Ellman) assay of CoA release, absorbance at […] nm
# Format: biochemical
# Settings: 0.1 mM lauroyl-CoA; co-substrate 1 mM mono-acylated MEL-D; 1 mM DTNB; 50 mM sodium phosphate pH 7.2, 25 °C
# T1 sequence (A0A2Z6ERP5 1-549): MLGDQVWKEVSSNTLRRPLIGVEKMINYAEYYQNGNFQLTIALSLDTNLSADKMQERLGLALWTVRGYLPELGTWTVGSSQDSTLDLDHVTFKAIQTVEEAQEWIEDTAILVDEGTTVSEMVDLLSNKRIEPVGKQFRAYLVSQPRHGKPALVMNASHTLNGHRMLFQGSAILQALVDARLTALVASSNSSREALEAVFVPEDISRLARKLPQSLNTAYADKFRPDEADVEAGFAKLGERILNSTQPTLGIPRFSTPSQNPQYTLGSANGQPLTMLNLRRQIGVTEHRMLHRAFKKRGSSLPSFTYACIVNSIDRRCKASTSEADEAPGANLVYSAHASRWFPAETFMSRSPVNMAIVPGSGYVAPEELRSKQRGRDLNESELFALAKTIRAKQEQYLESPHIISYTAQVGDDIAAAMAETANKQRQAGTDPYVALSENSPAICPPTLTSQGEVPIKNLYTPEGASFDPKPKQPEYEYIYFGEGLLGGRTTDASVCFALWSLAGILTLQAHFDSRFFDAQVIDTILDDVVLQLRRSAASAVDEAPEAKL
compound,measurement,value
CCCCCCCCCCCC(=O)SCCNC(=O)CCNC(=O)[C@H](O)C(C)(C)COP(=O)(O)OP(=O)(O)OC[C@H]1O[C@@H](n2cnc3c(N)ncnc32)[C@H](O)[C@@H]1OP(=O)(O)O [lauroyl-CoA],"DTNB (Ellman) assay of CoA release, absorbance at 412 nm",Purified PtMAC2p catalyzes the transfer of a fatty acid of lauroyl-CoA (C12)
